Data from patent US20260337153A1, “IONIZABLE AMINE LIPIDS” (Intellia Therapeutics, Inc., priority 2023, published 2026).

Test system: rat TTR gene
Assay: In vivo editing of TTR in rat liver after LNP delivery (NGS, % editing)
Design: species or system rat (Sprague-Dawley)
Details: for Mean % editing in rat liver: NGS, dose 0.03 mpk, LNP with G000534 sgRNA and Cas9 mRNA 1:2 w/w, 3% C13 Ether (Compound 53: 3% PEG2K-DMG), N=5 (Compound 33: N=4)
In short: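 Four-component LNPs (ionizable amine lipid, DSPC, cholesterol, PEG lipid) carried Cas9 mRNA and a chemically modified sgRNA against rat TTR, made by impinging jet mixing at an N:P near 6. They were injected into the lateral tail vein of female Sprague-Dawley rats. Liver genomic DNA collected at 6 or 7 days was amplicon-sequenced on Illumina MiSeq to calculate percent indels.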

[1] = Experiment 13, 0.03 mpk, LNP with PEG2K-DMG
[2] = Experiment 12, 0.04 mpk, LNP with PEG2K-DMG
[3] = Experiment 5, 0.1 mpk, LNP with PEG2K-DMG
[4] = Experiment 3, 0.1 mpk, LNP with PEG2K-DMG
[5] = Experiment 10, 0.1 mpk, LNP with PEG2K-DMG
[6] = Experiment 14, 0.03 mpk, LNP with C13 Ether
[7] = Experiment 2, 0.1 mpk, LNP with PEG2K-DMG
[8] = Experiment 8, 0.1 mpk, LNP with PEG2K-DMG
[9] = Experiment 4, 0.1 mpk, LNP with PEG2K-DMG
[10] = Experiment 7, 0.1 mpk, LNP with PEG2K-DMG
[11] = Experiment 9, 0.1 mpk, LNP with PEG2K-DMG

## CCCCCCCCC(CCCCCCCC)OC(=O)CCCCCCC(=O)OCC(COC(=O)CCCCCCC(=O)OC(CCCCCCCC)CCCCCCCC)COC(=O)NCCN(CC)CC [Compound 52, O′1,O1-(2-((((2-(diethylamino)ethyl)carbamoyl)oxy)methyl)propane-1,3-diyl) 8,8′-di(heptadecan-9-yl) di(octanedioate)]
[1]
  Mean % editing: 9.0%
  Mean % editing in rat liver: 11.9%
Table 8, 0.03 mpk, LNP with C13 Ether
  Mean % editing: 7.0%

## CCCCCCCCC(CCCCCCCC)OC(=O)CCCC(=O)OCC(COC(=O)CCCC(=O)OC(CCCCCCCC)CCCCCCCC)COC(=O)OCCCN(C)CC [Compound 30, O,O′-(2-((((3-(ethyl(methyl)amino)propoxy)carbonyl)oxy)methyl)propane-1,3-diyl) di(heptadecan-9-yl) diglutarate]
[2]
  Mean % editing: 12.6%

## CCCCC/C=C\C/C=C\CCCCCCCC(=O)OCC(CCCCCCCCC(=O)OC(CCCCCCCC)CCCCCCCCC)COC(=O)CCC(CCCC)OC(=O)NCCN(C)CC (centres unmarked) [Compound 26, 9-butyl-3-methyl-15-(9-(octadecan-9-yloxy)-9-oxononyl)-7,12-dioxo-8,13-dioxa-3,6-diazahexadecan-16-yl (9Z,12Z)-octadeca-9,12-dienoate]
[3]
  Mean % editing: 41.9%

## CCCCCCCCC(CCCCCCCC)OC(=O)CCCCCCC(=O)OCC(COC(=O)CCCCCCC(=O)OC(CCCCCCCC)CCCCCCCC)COC(=O)OCCCN1CCCC1 [Compound 65, 8,8′-di(heptadecan-9-yl) O′1,O1-(2-((((3-(pyrrolidin-1-yl)propoxy)carbonyl)oxy)methyl)propane-1,3-diyl) di(octanedioate)]
  Mean % editing in rat liver: 4.5%

## CCCCC/C=C\C/C=C\CCCCCCCC(=O)OCC(CCCCCCCCC(=O)OCC(CCCC)CCCCCC)COC(=O)OCCCN(CC)CC (centres unmarked) [Compound 7, 11-((2-butyloctyl)oxy)-2-((((3-(diethylamino)propoxy)carbonyl)oxy)methyl)-11-oxoundecyl (9Z,12Z)-octadeca-9,12-dienoate]
[4]
  Mean % editing: 30.0%

## CCCCC/C=C\C/C=C\CCCCCCCC(=O)OCC(COC(=O)CCCC(=O)OC(CCCCCCCC)CCCCCCCC)COC(=O)NCCN1CCCCCC1 (centres unmarked) [Compound 50, 3-(((2-(azepan-1-yl)ethyl)carbamoyl)oxy)-2-((((9Z,12Z)-octadeca-9,12-dienoyl)oxy)methyl)propyl heptadecan-9-yl Glutarate]
[5]
  Mean % editing: 53.1%

## CCCCCCCCC(CCCCCCCC)OC(=O)CCCC(=O)OCC(COC(=O)CCCC(=O)OC(CCCCCCCC)CCCCCCCC)COC(=O)OCCCN1CCCCC1 [Compound 32, di(heptadecan-9-yl) O,O′-(2-((((3-(piperidin-1-yl)propoxy)carbonyl)oxy)methyl)propane-1,3-diyl) diglutarate]
[2]
  Mean % editing: 1.2%

## CCCCCCCCC(CCCCCCCC)OC(=O)CCCC(=O)OCC(COC(=O)CCCC(=O)OC(CCCCCCCC)CCCCCCCC)COC(=O)OCCCN(C)C [Compound 31, O,O′-(2-((((3-(dimethylamino)propoxy)carbonyl)oxy)methyl)propane-1,3-diyl) di(heptadecan-9-yl) diglutarate]
[2]
  Mean % editing: 4.0%

## CCCCCCCCC(CCCCCCCC)OC(=O)CCCC(=O)OCC(COC(=O)CCCC(=O)OC(CCCCCCCC)CCCCCCCC)COC(=O)CCCN(C)C [Compound 34, O,O′-(2-(((4-(dimethylamino)butanoyl)oxy)methyl)propane-1,3-diyl) di(heptadecan-9-yl) diglutarate]
[6]
  Mean % editing: 14.9%

## CCCCCCCCC(CCCCCCCC)OC(=O)CCCC(=O)OCC(COC(=O)CCCC(=O)OC(CCCCCCCC)CCCCCCCC)COC(=O)OCCCN(CC)CC [Compound 2, O,O′-(2-((((3-(diethylamino)propoxy)carbonyl)oxy)methyl)propane-1,3-diyl) di(heptadecan-9-yl) diglutarate]
[7]
  Mean % editing: 59.8%
[4]
  Mean % editing: 38.3%
[6]
  Mean % editing: 21.2%

## CCCCCCCCOC(CCC(=O)OCC(COC(=O)CCC(OCCCCCCCC)OCCCCCCCC)COC(=O)NCCN(CC)CC)OCCCCCCCC [Compound 22, 2-((((2-(diethylamino)ethyl)carbamoyl)oxy)methyl)propane-1,3-diyl bis(4,4-bis(octyloxy)butanoate)]
[8]
  Mean % editing: 61.3%

## CCCCCCCCC(CCCCCCCC)OC(=O)CCCCCCC(COC(=O)CCCC(=O)OC(CCCCCCCC)CCCCCCCC)COC(=O)OCCCN(CC)CC (centres unmarked) [Compound 8, 2-((((3-(diethylamino)propoxy)carbonyl)oxy)methyl)-9-(heptadecan-9-yloxy)-9-oxononyl heptadecan-9-yl glutarate]
[4]
  Mean % editing: 20.8%

## CCCCC/C=C\C/C=C\CCCCCCCC(=O)OCC(COC(=O)CCC(OCCCCCCCC)OCCCCCCCC)COC(=O)OCCCN(CC)CC (centres unmarked) [Compound 53]
Experiment 1, 0.1 mpk, LNP with PEG2K-DMG
  Mean % editing: 38.6%
[7]
  Mean % editing: 55.2%
[4]
  Mean % editing: 41.4%
[9]
  Mean % editing: 41.8%
[3]
  Mean % editing: 42.8%
Experiment 6, 0.1 mpk, LNP with PEG2K-DMG
  Mean % editing: 47.1%
[10]
  Mean % editing: 31.5%
[8]
  Mean % editing: 47.8%
[11]
  Mean % editing: 42.6%
[5]
  Mean % editing: 44.2%
Experiment 11, 0.1 mpk, LNP with PEG2K-DMG
  Mean % editing: 42.0%
[1]
  Mean % editing: 8.5%
  Mean % editing in rat liver: 9.9%
Table 6, 0.03 mpk, PEG lipid C13 Ether
  Mean % editing: 7.5%
Table 6, 0.03 mpk, PEG lipid C14 Ether
  Mean % editing: 4.2%
Table 6, 0.03 mpk, PEG lipid PEG2K-DMG
  Mean % editing: 9.6%

## CCCCCCCCC(CCCCCCCC)OC(=O)CCCC(=O)OCC(C)(COC(=O)CCCC(=O)OC(CCCCCCCC)CCCCCCCC)COC(=O)NCCN(CC)CC [Compound 36, O,O′-(2-((((2-(diethylamino)ethyl)carbamoyl)oxy)methyl)-2-methylpropane-1,3-diyl) di(heptadecan-9-yl) diglutarate]
[2]
  Mean % editing: 27.4%

## CCCCCCCCOC(CCC(=O)OCC(COC(=O)NCCN(CC)CC)COC(=O)C(CCCC)CCCCCC)OCCCCCCCC (centres unmarked) [Compound 48, 3-((4,4-bis(octyloxy)butanoyl)oxy)-2-((((2-(diethylamino)ethyl)carbamoyl)oxy)methyl)propyl 2-butyloctanoate]
[10]
  Mean % editing: 55.0%

## CCCCCCCCC(CCCCCCCC)OC(=O)CCCCCCC(=O)OCC(CC)(COC(=O)CCCCCCC(=O)OC(CCCCCCCC)CCCCCCCC)COC(=O)OCCCN1CCCC1 [Compound 67, O′1,O1-(2-ethyl-2-((((3-(pyrrolidin-1-yl)propoxy)carbonyl)oxy)methyl)propane-1,3-diyl) 8,8′-di(heptadecan-9-yl) di(octanedioate)]
  Mean % editing in rat liver: 1.6%

## CCCCC/C=C\C/C=C\CCCCCCCC(=O)OCC(CCCCCCCCC(=O)OC(CCCCCCCC)CCCCCCCC)COC(=O)NCCN(CC)CC (centres unmarked) [Compound 10, 2-((((2-(diethylamino)ethyl)carbamoyl)oxy)methyl)-11-(heptadecan-9-yloxy)-11-oxoundecyl (9Z,12Z)-octadeca-9,12-dienoate]
[9]
  Mean % editing: 35.3%

## CCCCCCCCC(CCCCCCCC)OC(=O)CCCCC(=O)OCC(COC(=O)CCCCC(=O)OC(CCCCCCCC)CCCCCCCC)COC(=O)NCCN(CC)CC [Compound 68, O,O′-(2-((((2-(diethylamino)ethyl)carbamoyl)oxy)methyl)propane-1,3-diyl) di(heptadecan-9-yl) diadipate]
  Mean % editing in rat liver: 17.1%

## CCCCC/C=C\C/C=C\CCCCCCCC(=O)OCC(CCCCC(=O)OC(CCCCCC)CCCCCC)COC(=O)OCCCN(CC)CC (centres unmarked) [Compound 17, 2-((((3-(diethylamino)propoxy)carbonyl)oxy)methyl)-7-oxo-7-(tridecan-7-yloxy)heptyl (9Z,12Z)-octadeca-9,12-dienoate]
[11]
  Mean % editing: 35.8%
